Drawing on patent US6723753B2, “Substituted n-benzyl-n-phenyl aminoalcohol compounds useful for inhibiting cholesteryl ester transfer protein activity” (Pharmacia Corporation, priority 2002, dated 2004), this text covers IC50 for 25 compounds.

A value given as a limit tells only on which side of the number the result lay.

This test has as its target T1, CETP (Homo sapiens, UniProt P11597).
T1 sequence (P11597 18-493): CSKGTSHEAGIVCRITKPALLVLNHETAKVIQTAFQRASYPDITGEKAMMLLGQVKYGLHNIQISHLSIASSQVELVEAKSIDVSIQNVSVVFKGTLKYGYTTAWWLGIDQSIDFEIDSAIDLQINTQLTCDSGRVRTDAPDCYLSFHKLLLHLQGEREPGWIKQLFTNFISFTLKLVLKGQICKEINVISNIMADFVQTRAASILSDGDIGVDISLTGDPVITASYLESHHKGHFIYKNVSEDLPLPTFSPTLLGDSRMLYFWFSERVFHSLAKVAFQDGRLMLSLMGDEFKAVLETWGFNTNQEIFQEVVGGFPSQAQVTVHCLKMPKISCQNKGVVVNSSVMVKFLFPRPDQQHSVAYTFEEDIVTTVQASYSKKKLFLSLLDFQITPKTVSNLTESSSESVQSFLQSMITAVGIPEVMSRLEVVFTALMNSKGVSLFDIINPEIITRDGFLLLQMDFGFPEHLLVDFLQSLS
Kind of test: Assay of CETP Inhibition using Purified Components (Reconstituted Buffer Assay). The format is biochemical. Also noted: made in house; host or cells: CHO cells (serum-free conditioned medium). The settings on record: Inhibition of CETP activity in reconstituted buffer assay; transfer of [3H]CE from HDL to LDL; read-out: IC50. The procedure, abridged:
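Transfer of radiolabeled cholesteryl ester from HDL to LDL was run for 2 h at 37 °C in pH 7.4 Tris buffer with 1% BSA, using purified CHO-expressed human CETP. Precipitated LDL radioactivity, measured by scintillation after dextran sulfate/MgCl2 precipitation and filtration, yielded the IC50.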

One may read the IC50 as the midpoint of a concentration-inhibition curve. With `OC(CN(Cc1cccc(OC(F)(F)C(F)F)c1)c1cccc(Nc2ccc(OC(F)(F)F)cc2)c1)C(F)(F)F` (stereo not shown) [Example 308], the IC50 worked out at 15 µM. As to `OC(CN(Cc1cccc(-c2cccnc2)c1)c1cccc(Oc2ccccc2)c1)C(F)(F)F` (stereo not shown) [Example 590], the half-inhibitory concentration (IC50) is 14 µM. For the compound `COc1ccc(N(Cc2cccc(OC(F)(F)F)c2)CC(O)C(F)(F)F)cc1OC` (stereo not shown) [Example 132], the IC50 came out at 25 µM. The same measure for `COc1ccc(CN(CC(O)C(F)(F)F)c2cccc(OC(F)(F)F)c2)cc1OCc1ccccc1` (stereo not shown) [Example 99]: over 100 µM; for `OC(CN(Cc1ccc(OC(F)(F)F)cc1)c1ccccc1)C(F)(F)F` (stereo not shown) [Example 59]: 7 µM; for `COc1cc(N(Cc2cccc(C(F)(F)F)c2)CC(O)C(F)(F)F)cc(C(F)(F)F)c1` (stereo not shown) [compound 215]: 9.2 µM.

For `OC(CN(Cc1cccc(OC(F)(F)C(F)F)c1)c1cccc(S)c1)C(F)(F)F` (stereo not shown) [473B], the IC50 is 42 µM. Then `Cc1ncccc1Oc1cccc(N(Cc2cccc(OC(F)(F)C(F)F)c2)CC(O)C(F)(F)F)c1` (stereo not shown) [Example 289], with 1.8 µM. Consider `CS(=O)(=O)c1ccc(-c2cccc(N(Cc3cccc(OC(F)(F)C(F)F)c3)CC(O)C(F)(F)F)c2)cc1` (stereo not shown) [Example 575], for which the concentration for half-maximal inhibition (IC50) is over 50 µM. `Cc1ccc(CN(CC(O)C(F)(F)F)c2cccc(C)c2)cc1` (stereo not shown) [Example 12]: the IC50 is over 100 µM.

Take `O=[N+]([O-])c1cccc(Cc2cccc(N(Cc3cccc(OC(F)(F)C(F)F)c3)CC(O)C(F)(F)F)c2)c1` (stereo not shown) [Example 516]: the IC50 came out at 3 µM. Then `OC(CN(Cc1cccc(OC(F)(F)F)c1)c1ccc2c(c1)OCO2)C(F)(F)F` (stereo not shown) [Example 129], with 9 µM; and `COc1ccc(OC)c(CN(CC(O)C(F)(F)F)c2cccc(OC(F)(F)F)c2)c1` (stereo not shown) [Example 355], with 75 µM. For the compound `COc1ccc(CN(CC(O)C(F)(F)F)c2cccc(OC(F)(F)F)c2)cc1` (stereo not shown) [Example 122], the IC50 is 8 µM. Take `COC(=O)c1ccc(CN(CC(O)C(F)(F)F)c2cccc(Oc3ccccc3)c2)cc1` (stereo not shown) [Example 157]: the IC50 was over 100 µM. Turning to `CC(CCc1cccc(OC(F)(F)F)c1)N(CC(O)C(F)(F)F)c1cccc(Oc2ccccc2)c1` (stereo not shown) [Example 626, 3-[[1-methyl-3-[3-(trifluoromethoxy)phenyl]propyl](3-phenoxyphenyl)amino]-1,1,1-trifluoro-2-propanol], the IC50 came out at 30 µM. The same measure for `Cc1cccc(CN(CC(O)C(F)(F)F)c2cccc(C)c2)c1` (stereo not shown) [Example 11]: over 100 µM; for `OC(CN(Cc1cccc(OC(F)(F)C(F)F)c1)c1cccc(-c2ccc(F)cc2)c1)C(F)(F)F` (stereo not shown) [Example 568]: 1.4 µM. `OC(CN(Cc1cccc(OC(F)(F)C(F)F)c1)c1cccc(-c2nn[nH]n2)c1)C(F)(F)F` (stereo not shown) [Example 577, 3-[[[3-(1,1,2,2-tetrafluoroethoxy)phenyl]methyl][3-(1H-tetrazol-5-yl)phenyl]amino]-1,1,1-trifluoro-2-propanol]: the IC50 is over 50 µM. The same measure for `COc1cc(CN(CC(O)C(F)(F)F)c2cccc(OC(F)(F)F)c2)ccc1OCc1ccccc1` (stereo not shown) [Example 106]: 30 µM. The same measure for `O=[N+]([O-])c1cccc(CN(CC(O)C(F)(F)F)c2cccc(OC(F)(F)F)c2)c1` (stereo not shown) [Example 335]: 40 µM. For `O=S(=O)(Nc1cccc(N(Cc2cccc(OC(F)(F)C(F)F)c2)CC(O)C(F)(F)F)c1)c1cccc(C(F)(F)F)c1` (stereo not shown) [Example 531], the IC50 was over 50 µM. Then `OC(CN(Cc1cccc(OC(F)(F)C(F)F)c1)c1cccc(Oc2ccc(C(F)(F)F)cc2F)c1)C(F)(F)F` (stereo not shown) [Example 224], with 0.16 µM; and `OC(CN(Cc1cccc(Oc2ncccn2)c1)c1cccc(Oc2ccccc2)c1)C(F)(F)F` (stereo not shown) [Example 605, 3-[(3-phenoxyphenyl) [[3-(2-pyrimidinyloxy)phenyl]methyl]amino]-1,1,1-trifluoro-2-propanol], with 12 µM. `CC(c1ccc(C#N)cc1)N(CC(O)C(F)(F)F)c1cccc(Oc2ccccc2)c1` (stereo not shown) [Example 202]: the IC50 was over 100 µM.
